# System: cerebral vessels
# Description: These are the symptoms upon presentation in the neurological clinic. Transcranial Doppler analysis of all cerebral vessels is performed in addition to analyzing the common carotid artery and the internal carotid artery.
# The physician considers prescription of Plavix together with a calcium channel blocker. Transcranial Doppler analysis was performed at monthly intervals. […] The physician subsequently administers a higher dose. Again, transcranial Doppler analysis is performed on all cerebral vessels.
# The patient is then monitored on a monthly basis after the initial prescription of Plavix in order to determine whether vascular changes are occurring which necessitate alteration in the therapy.
# [1] = same patient, higher dose, transcranial Doppler on all cerebral vessels
smiles,measurement,setting,value
COC(=O)[C@H](c1ccccc1Cl)N1CCc2sccc2C1 [Plavix],changes in the individual cerebral vessels,"person after first stroke, Plavix +/- calcium channel blocker, initial dose, transcranial Doppler at monthly intervals",no effect on the cerebral vessels
same,auto-regulation curve,[1],left-shifts toward normal
same,pulsatility index,[1],decreases
